Data from patent US20250034113A1, “SOLID STATE FORMS OF TAVAPADON AND PROCESSES FOR PREPARATION THEREOF” (TEVA CZECH INDUSTRIES S.R.O, priority 2021, published 2025).

Assay: Stability test of crystalline forms at different relative humidities and temperatures, XRPD analysis
Type: physicochemical
Conditions: for XRPD analysis after storage: 2 month; for time stable after exposure to different relative humidity conditions at different temperatures: 25° C./60% RH and 40° C./75% RH, by XRPD; for stability to conditions of relative humidity at elevated temperatures: general statement
Protocol: Powder X-ray Diffraction was performed on an X-Ray powder diffractometer PanAlytical X'pert Pro; CuKα radiation (λ=1.54187 Å); X'Celerator detector with active length 2.122 degrees 2-theta; laboratory temperature 25±3° C.; zero background sample holders. Prior to analysis, the samples were gently ground using a mortar and pestle to obtain a fine powder. The ground sample was adjusted into a cavity of the sample holder and the surface of the sample was smoothed using a cover glass.
• Scan range: 3-40 degrees 2-theta • Scan mode: continuous • Step size: 0.0167 degrees • […] s • Sample spin: 60 rpm • Sample holder: zero background silicon plate
Samples of Tavapadon form 1 and Form H1 were subjected to conditions of different relative humidities at different temperatures. XRPD analysis was performed on the samples after 2 month.
Samples of Tavapadon Form H1 were subjected to conditions of different relative humidities at different temperatures, over a time period of 6 months. XRPD analysis was performed on the samples after 2, 4 and 6 months.
Samples of Tavapadon Form R1 were subjected to conditions of different relative humidities at different temperatures, over a time period of 6 months. XRPD analysis was performed on the samples after 2, 4 and 6 months.

| XRPD result (crystalline form) (0 M (start)) | XRPD analysis after storage (25° C., 60% RH) | time stable after exposure to different relative humidity conditions at different temperatures | XRPD result (crystalline form) (25° C./60% RH, 2 M) | XRPD result (crystalline form) (25° C./60% RH, 4 M) | XRPD result (crystalline form) (25° C./60% RH, 6 M) | XRPD result (crystalline form) (40° C./75% RH, 2 M) | XRPD result (crystalline form) (40° C./75% RH, 4 M) | XRPD result (crystalline form) (40° C./75% RH, 6 M) | stability to conditions of relative humidity at elevated temperatures | XRPD analysis after storage (40° C., 75% RH) | Compound |
| --- | --- | --- | --- | --- | --- | --- | --- | --- | --- | --- | --- |
| Form H1 | No change | at least 6 months | Form H1 | Form H1 | Form H1 | Form H1 | Form H1 | Form H1 | particularly stable | – | Cc1cc(Oc2ncccc2C(F)(F)F)ccc1-c1c(C)c(=O)[nH]c(=O)n1C (single isomer, unassigned) [Tavapadon Form H1, 1,5-dimethyl-6-(2-methyl-4-{[3-(trifluoromethyl)pyridin-2-yl]oxy}phenyl)pyrimidine-2,4(1H,3H)-dione] |
| Form R1 | – | at least 6 months | Form R1 | Form R1 | Form R1 | Form R1 | Form R1 | Form R1 | – | – | Cc1cc(Oc2ncccc2C(F)(F)F)ccc1-c1c(C)c(=O)[nH]c(=O)n1C (racemic) [Tavapadon Form R1, 1,5-dimethyl-6-(2-methyl-4-{[3-(trifluoromethyl)pyridin-2-yl]oxy}phenyl)pyrimidine-2,4(1H,3H)-dione] |
| – | No change | – | – | – | – | – | – | – | particularly stable | No change | Cc1cc(Oc2ncccc2C(F)(F)F)ccc1-c1c(C)c(=O)[nH]c(=O)n1C (single isomer, unassigned) [Tavapadon Form 1, 1,5-dimethyl-6-(2-methyl-4-{[3-(trifluoromethyl)pyridin-2-yl]oxy}phenyl)pyrimidine-2,4(1H,3H)-dione] |
